From patent US6800481B1, “Stable macroscopic membranes formed by self-assembly of amphiphilic peptides and uses therefor” (priority 1992, dated 2004)
Residues, ends and D or L forms follow the SMILES beside them.

System: 3T3
Experiment: Cell attachment to biopolymer sheets, normal or Ca++ and Mg++ free medium (Table 6)
Type: cell-based, mouse
Set-up: key: ++++: strong attachment; +++: moderate attachment; ++: weak attachment; +/−: little or no attachment
Experimental: Cells were pretreated in serum-free medium containing 30 μg/ml cyclohexamide for 2 hours before introduction to the peptide membranes. The cells used for the calcium and magnesium-free condition were pre-equilibrated in Ca^++ and Mg^++ free medium containing 5 mM EDTA for 15 minutes before introduction to the peptide membranes. Cells were allowed to attach to the peptide membranes for 30 minutes, 1 and 8 hours at 37° C. The attached cells were shaken for […] on a rotary rocker at 60 r.p.m., then scored under phase contrast microscopy.

Measured: cell attachment

CC(=O)N[C@@H](C)C(=O)N[C@@H](CCC(=O)O)C(=O)N[C@@H](C)C(=O)N[C@@H](CCC(=O)O)C(=O)N[C@@H](C)C(=O)N[C@@H](CCCCN)C(=O)N[C@@H](C)C(=O)N[C@@H](CCCCN)C(=O)N[C@@H](C)C(=O)N[C@@H](CCC(=O)O)C(=O)N[C@@H](C)C(=O)N[C@@H](CCC(=O)O)C(=O)N[C@@H](C)C(=O)N[C@@H](CCCCN)C(=O)N[C@@H](C)C(=O)N[C@@H](CCCCN)C(N)=O [EAK16] (Ac-AEAEAKAKAEAEAKAK-NH2)
++++: 3T3, 30 min, Ca^++ & Mg^++ free, EDTA serum-free + Cyclohex | 3T3, 30 min, Normal Ca^++ & Mg^++ serum-free + Cyclohex | 3T3, 60 min, Ca^++ & Mg^++ free, EDTA serum-free + Cyclohex | 3T3, 60 min, Normal Ca^++ & Mg^++ serum-free + Cyclohex
